Key:
[1] = biological target: T1, Angiotensin-converting enzyme (Homo sapiens, UniProt P12821); assay: Inhibition of human somatic ACE N-domain soluble form (1 to 629 residues) expressed in CHO cells using Z-FHL as substrate preincubated with enzyme followed by substrate addition by fluorescence based assay
[2] = biological target: T1, Angiotensin-converting enzyme; assay: Inhibition of human testis ACE C-domain lacking unique O-glycosylated region, transmembrane anchor and cytoplasmic tail expressed in CHO cells using Z-FHL as substrate by fluorescence based assay
Neprilysin [3] = biological target: Neprilysin (Homo sapiens, UniProt P08473); assay: Inhibition of NEP (unknown origin)
[4] = biological target: T1, Angiotensin-converting enzyme; assay: Inhibition of human ACE using MCA-RPPGFSAFK-Dnp-OH as substrate by fluorescence based analysis
Neprilysin [5] = biological target: T2, Neprilysin (Rattus norvegicus, UniProt P07861); assay: Inhibition of rat kidney NEP using glutaryl-Ala-Ala-beta-naphthylamide as substrate preincubated with enzyme for 15 mins followed by substrate addition
T2 sequence (P07861 whole entry): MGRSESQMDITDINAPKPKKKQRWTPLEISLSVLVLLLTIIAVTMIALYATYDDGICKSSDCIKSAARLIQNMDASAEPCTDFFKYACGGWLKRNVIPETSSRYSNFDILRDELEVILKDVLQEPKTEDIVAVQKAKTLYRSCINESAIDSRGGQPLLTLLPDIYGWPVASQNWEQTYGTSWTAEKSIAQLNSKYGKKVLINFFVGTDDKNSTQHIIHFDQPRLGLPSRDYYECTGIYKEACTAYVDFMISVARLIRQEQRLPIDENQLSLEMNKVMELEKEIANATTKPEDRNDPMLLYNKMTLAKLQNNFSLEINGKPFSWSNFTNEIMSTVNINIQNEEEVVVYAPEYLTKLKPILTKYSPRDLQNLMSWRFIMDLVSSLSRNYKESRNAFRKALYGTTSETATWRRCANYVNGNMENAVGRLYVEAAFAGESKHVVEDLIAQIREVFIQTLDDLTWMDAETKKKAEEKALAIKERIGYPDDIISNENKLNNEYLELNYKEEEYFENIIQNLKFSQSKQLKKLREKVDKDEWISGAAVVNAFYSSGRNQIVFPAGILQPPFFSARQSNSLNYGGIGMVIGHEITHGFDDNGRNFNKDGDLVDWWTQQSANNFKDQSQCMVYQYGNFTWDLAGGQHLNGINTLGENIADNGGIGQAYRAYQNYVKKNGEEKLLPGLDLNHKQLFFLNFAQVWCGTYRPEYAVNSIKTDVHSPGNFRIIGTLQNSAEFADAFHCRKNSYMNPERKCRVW

[6] = Inhibition of rabbit lung ACE using hippuryl-His-Leu as substrate preincubated with enzyme for 15 mins followed by substrate addition; parameters: species or system Oryctolagus cuniculus

T1 sequence (P12821 whole entry, the tested form may be a part): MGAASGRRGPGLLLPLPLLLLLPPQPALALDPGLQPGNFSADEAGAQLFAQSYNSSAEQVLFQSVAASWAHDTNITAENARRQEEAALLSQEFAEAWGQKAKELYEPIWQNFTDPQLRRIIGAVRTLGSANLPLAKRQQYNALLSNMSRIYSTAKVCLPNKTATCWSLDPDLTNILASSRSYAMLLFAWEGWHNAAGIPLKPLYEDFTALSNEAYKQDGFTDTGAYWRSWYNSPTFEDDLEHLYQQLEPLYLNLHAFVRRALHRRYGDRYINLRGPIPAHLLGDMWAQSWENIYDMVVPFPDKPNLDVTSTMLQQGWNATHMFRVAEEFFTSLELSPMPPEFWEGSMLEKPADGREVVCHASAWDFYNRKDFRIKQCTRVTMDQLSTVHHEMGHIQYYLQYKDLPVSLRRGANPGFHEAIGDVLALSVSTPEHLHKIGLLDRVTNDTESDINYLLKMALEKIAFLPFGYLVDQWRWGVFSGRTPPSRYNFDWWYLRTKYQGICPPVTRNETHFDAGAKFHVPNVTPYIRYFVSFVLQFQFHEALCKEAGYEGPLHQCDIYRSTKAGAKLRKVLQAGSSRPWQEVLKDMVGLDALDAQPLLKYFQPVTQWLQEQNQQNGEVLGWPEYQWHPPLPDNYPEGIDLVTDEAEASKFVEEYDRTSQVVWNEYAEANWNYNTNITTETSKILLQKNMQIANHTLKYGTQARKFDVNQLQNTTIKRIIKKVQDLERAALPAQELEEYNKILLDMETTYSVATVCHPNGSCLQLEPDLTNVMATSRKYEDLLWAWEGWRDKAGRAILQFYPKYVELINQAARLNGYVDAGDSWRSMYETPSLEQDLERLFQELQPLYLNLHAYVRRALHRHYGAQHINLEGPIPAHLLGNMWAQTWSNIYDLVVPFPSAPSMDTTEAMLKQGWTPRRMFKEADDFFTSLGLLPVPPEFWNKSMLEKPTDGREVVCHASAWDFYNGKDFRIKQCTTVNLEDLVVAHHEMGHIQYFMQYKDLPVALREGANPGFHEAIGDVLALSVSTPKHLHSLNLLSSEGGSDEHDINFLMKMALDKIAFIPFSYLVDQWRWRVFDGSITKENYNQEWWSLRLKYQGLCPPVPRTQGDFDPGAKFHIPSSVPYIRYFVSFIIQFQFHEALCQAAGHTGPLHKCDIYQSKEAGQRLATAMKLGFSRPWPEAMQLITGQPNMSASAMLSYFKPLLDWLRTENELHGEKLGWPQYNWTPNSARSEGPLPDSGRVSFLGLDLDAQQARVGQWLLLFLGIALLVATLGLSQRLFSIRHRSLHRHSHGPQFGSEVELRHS
Chain of Neprilysin (Homo sapiens, UniProt P08473) (P08473 whole entry): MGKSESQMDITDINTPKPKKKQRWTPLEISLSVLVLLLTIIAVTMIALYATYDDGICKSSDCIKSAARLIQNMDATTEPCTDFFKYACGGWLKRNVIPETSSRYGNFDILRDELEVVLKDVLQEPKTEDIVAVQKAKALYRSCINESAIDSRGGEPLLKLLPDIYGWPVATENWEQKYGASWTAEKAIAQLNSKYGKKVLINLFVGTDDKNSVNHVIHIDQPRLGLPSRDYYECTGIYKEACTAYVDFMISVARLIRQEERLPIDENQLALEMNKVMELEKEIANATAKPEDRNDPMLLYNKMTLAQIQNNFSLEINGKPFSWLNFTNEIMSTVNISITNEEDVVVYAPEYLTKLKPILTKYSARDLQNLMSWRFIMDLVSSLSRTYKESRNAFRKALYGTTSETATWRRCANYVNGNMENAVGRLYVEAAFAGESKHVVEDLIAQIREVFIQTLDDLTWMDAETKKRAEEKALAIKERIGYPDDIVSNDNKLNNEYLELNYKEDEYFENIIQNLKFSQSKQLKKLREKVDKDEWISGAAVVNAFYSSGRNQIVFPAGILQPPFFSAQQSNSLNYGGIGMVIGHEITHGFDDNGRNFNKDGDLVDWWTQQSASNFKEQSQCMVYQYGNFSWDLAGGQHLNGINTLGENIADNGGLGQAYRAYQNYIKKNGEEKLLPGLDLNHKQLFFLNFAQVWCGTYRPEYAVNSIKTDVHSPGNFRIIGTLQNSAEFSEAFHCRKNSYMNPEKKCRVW

Ki [1] [nM]	Ki [2] [nM]	Compound	further results
172	13.8	CS(=O)(=O)N[C@@H](CCCCN)C(=O)NC[C@H](CC1(C(=O)N[C@@H](Cc2ccc(O)cc2)C(=O)O)CCCC1)C(=O)O	IC50 (Neprilysin [3]): 8 nM
10600	7400	CC(=O)N[C@@H](CC(=O)O)C(=O)NC[C@H](CC1(C(=O)N[C@@H](Cc2ccc(O)cc2)C(=O)O)CCCC1)C(=O)O	–
–	–	C[C@H](C[C@@H](Cc1ccc(-c2ccccc2)cc1)NC(=O)CCC(=O)O)C(=O)O [LBQ-657]	IC50 [4]: > 100000 nM
–	–	CC(C)C[C@H](NP(=O)(O)O[C@@H]1O[C@@H](C)[C@H](O)[C@@H](O)[C@H]1O)C(=O)N[C@@H](Cc1c[nH]c2ccccc12)C(=O)O [PHOSPHORAMIDON]	IC50 (Neprilysin [5]): 34 nM; IC50 [6]: 78000 nM
